Format in all cases: cell-based
For assay [1], the target named is T1, mouse TLR7 (Mus musculus, UniProt P58681).
T1 construct: host or cells: HEK293 cells (ATCC, CRL-1573)
T1 sequence (P58681 27-1050): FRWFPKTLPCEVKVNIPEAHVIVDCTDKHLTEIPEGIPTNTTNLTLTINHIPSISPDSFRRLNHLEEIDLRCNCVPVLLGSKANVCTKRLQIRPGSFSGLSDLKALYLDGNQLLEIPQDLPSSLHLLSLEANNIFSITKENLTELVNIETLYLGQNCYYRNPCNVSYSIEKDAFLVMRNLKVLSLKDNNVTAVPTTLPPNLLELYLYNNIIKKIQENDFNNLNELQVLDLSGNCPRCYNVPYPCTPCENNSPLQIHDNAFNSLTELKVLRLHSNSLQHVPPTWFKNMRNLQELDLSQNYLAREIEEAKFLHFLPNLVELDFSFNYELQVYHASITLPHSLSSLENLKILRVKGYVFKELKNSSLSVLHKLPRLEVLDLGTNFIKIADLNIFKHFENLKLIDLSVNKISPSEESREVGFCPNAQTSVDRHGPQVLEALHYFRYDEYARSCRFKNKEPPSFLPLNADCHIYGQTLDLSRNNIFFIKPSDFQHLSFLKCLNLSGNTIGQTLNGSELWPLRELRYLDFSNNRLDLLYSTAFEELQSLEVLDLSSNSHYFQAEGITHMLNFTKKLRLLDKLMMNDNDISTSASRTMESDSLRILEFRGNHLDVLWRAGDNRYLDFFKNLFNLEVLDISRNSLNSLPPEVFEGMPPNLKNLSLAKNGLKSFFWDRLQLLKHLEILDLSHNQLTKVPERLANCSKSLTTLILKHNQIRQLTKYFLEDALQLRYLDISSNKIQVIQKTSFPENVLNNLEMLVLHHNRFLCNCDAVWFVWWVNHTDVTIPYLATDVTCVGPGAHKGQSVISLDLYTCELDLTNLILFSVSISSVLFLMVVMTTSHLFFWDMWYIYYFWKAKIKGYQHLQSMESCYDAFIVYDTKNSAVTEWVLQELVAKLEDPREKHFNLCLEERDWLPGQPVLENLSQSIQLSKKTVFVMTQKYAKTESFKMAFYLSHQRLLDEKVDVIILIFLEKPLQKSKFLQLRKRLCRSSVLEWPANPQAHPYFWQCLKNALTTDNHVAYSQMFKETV
The assay is described as follows: TLR signaling, NF-kB luciferase reporter in transfected HEK293 cells. To be noted: HEK293 transfected with mTLR7, NF-kB luciferase; FIG. 1. The method, then:
(§1) HEK293 cells (ATCC, CRL-1573) are seeded in a T75 flask at 3×10^6 in 20 ml of DMEM supplemented with 0.1 mM nonessential amino acid, 1 mM sodium pyruvate, 2 mM L-glutamine, penicillin-streptomycin, and 10% FCS. After overnight culturing, the cells are transfected with 1) pNFkB-TA-luciferase reporter (0.4 ug) (BD clontech, Palo Alto, Calif.), and with 2) with pGL4.74 (0.01 ug) that carries a TK promoter, not responsive to NF-kB stimulation, and carries a Renilla luciferase gene, used as an internal control (Promega, Wis.), and 3), separately with a following TLR construct (10 ug): human TLR (hTLR) 7, hTLR8, mouse TLR7 (mTLR7) puno constructs (Invivogene, CA), using Fugene 6 transfection reagent (Roche). The transfected cells after 24 hours transfection are collected and seeded in a 96-well and flat-bottom plate (1×10^4 cell/well) plate, and stimulated with the test compounds at the following concentrations: 30, 10, 3, 1, 0.3, 0.1, 0.03 uM. After overnight compound stimulation, the cells are assayed for expression of fly and renilla luciferases using Dual-Luciferase Reporter Assay System (Promega, WI). NF-kb activation is directly proportional to relative fly luciferase units, which is measured against the internal control renilla luciferase units.

The target of assay [2] is T2, human TLR7 (Homo sapiens, UniProt Q9NYK1).
T2 construct: host or cells: HEK293 cells (ATCC, CRL-1573)
T2 sequence (Q9NYK1 27-1049): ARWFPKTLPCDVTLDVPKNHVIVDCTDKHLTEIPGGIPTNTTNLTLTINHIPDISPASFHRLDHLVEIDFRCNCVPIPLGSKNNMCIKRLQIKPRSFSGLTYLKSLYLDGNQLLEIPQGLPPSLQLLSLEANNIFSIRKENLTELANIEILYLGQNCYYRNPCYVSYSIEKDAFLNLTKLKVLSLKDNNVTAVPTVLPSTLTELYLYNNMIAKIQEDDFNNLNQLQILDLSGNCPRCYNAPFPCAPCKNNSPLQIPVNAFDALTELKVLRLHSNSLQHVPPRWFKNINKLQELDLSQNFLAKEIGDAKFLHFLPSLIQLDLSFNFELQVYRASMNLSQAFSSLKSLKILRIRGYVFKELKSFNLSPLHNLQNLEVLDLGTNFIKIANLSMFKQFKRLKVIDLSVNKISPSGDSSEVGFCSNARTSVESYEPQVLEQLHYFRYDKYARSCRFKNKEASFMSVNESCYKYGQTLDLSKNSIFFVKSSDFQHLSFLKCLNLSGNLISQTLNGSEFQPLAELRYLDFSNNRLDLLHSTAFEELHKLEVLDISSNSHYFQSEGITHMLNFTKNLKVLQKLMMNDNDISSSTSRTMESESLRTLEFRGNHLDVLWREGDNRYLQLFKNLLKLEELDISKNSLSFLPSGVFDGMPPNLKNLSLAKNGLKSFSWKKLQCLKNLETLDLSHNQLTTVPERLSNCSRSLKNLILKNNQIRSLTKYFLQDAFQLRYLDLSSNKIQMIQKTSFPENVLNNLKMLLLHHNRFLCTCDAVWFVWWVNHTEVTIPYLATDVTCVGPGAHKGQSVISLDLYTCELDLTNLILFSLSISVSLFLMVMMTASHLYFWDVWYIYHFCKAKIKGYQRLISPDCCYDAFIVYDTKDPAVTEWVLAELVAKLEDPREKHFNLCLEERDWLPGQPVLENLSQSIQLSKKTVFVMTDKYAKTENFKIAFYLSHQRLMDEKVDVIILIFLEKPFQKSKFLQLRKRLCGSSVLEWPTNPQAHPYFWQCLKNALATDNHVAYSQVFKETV
Described as above. To be noted: HEK293 transfected with hTLR7, NF-kB luciferase; FIG. 1. As for the experimental part: as §1

For assay [3], the target named is T3, human TLR8 (Homo sapiens, UniProt Q9NR97).
T3 construct: host or cells: HEK293 cells (ATCC, CRL-1573)
T3 sequence (Q9NR97 27-1041): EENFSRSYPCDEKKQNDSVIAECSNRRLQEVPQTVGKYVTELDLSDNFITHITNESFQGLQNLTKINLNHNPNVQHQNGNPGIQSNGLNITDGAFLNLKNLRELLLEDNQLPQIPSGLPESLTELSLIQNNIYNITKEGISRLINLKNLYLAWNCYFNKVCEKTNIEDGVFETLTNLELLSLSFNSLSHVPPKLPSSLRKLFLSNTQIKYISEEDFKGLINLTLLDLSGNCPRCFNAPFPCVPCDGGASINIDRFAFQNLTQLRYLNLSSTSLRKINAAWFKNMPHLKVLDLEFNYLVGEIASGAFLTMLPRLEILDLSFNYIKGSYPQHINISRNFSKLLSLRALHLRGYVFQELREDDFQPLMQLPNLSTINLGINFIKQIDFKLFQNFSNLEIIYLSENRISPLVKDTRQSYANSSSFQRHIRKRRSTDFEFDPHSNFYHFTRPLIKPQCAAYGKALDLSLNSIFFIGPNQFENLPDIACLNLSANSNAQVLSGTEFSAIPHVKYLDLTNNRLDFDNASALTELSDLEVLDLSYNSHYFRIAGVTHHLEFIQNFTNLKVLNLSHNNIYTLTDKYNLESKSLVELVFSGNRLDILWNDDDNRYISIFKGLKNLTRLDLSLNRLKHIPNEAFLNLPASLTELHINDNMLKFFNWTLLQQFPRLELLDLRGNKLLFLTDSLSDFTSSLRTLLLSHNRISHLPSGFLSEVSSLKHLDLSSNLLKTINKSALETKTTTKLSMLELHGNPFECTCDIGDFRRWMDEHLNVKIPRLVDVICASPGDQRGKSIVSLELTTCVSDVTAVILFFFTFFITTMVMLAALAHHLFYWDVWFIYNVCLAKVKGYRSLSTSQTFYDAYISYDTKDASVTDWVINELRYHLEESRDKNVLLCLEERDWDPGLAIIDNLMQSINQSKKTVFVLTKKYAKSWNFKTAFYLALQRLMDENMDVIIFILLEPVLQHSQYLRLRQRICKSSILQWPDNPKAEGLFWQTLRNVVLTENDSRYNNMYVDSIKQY
The assay is described as above. To be noted: HEK293 transfected with hTLR8, NF-kB luciferase; FIG. 1. As for the experimental part:
as §1

In assay [4] the test system is IL-6. The assay is described as follows: Compound stimulation and multi-cytokine measurement (IL-6 production). To be noted: cytokine induction; cell type not stated at the result; read-out: EC50 value with respect to agonism of IL-6. The method, then:
Human PBMC (hPBMC) (at 1 million cells/ml) or mouse spleen cells (at 5 million cells/ml) or human monocytic THP-1 cells (at 1 million cells/ml) were mixed with tested compounds such as imidazoquinoxalines at titrated compound concentrations in the complete RPMI medium. After the cell cultures were incubated for 24 hours at 37° C., 5% CO2, the culture supernatant was collected and assayed for the secreted cytokines in the presence of the compounds. Human or mouse Beadlyte multi-cytokine flex kits (Upstate, Lake Placid, N.Y.) were used to measure the amount of the following cytokines: TNF-α and IL-6 according to the manufacturers instructions.
Due to the agonist nature of the compounds tested, compound ranking is based on potency in cell-based screens for cytokine induction. Briefly, the EC50 of each compound for a given cytokine is calculated relative to a reference composition (i.e. LPS or other potent immune stimulator). This value is then used as the divisor of the maximum level of cytokine produced (pg/ml) in the assay. Five parameter curve fitting of cytokine dose response curves to different SMIPs for the indicated cell populations is used to calculate EC50. Rank-scoring of SMIP potency is calculated by dividing the maximum concentration of cytokine produced by the relative EC50 established for each compound indicated.

For assay [5], the system named is TNF-α. The assay is described as follows: Compound stimulation and multi-cytokine measurement (TNF-α production). To be noted: cytokine induction; FIG. 2: human PBMC TNF-α production; read-out: EC50 value with respect to agonism of TNF-α. The method, then: Human blood from one or multiple human donors were collected into the BD Vacutainer™ CPT tube with sodium citrate (BD, Franklin Lakes, N.J.), and spun for 20 minutes at 1600 g. After centrifugation, mononuclear cells in the top layer in the tubes were collected and then washed three times with PBS buffer. The washed cells were then reconstituted at a required cell concentration in complete RPMI containing 10% FBS plus 100 units/ml penicillin and 100 ug/ml streptomycin.
Human PBMC (hPBMC) (at 1 million cells/ml) or mouse spleen cells (at 5 million cells/ml) or human monocytic THP-1 cells (at 1 million cells/ml) were mixed with tested compounds such as imidazoquinoxalines at titrated compound concentrations in the complete RPMI medium. After the cell cultures were incubated for 24 hours at 37° C., 5% CO2, the culture supernatant was collected and assayed for the secreted cytokines in the presence of the compounds. […]
Due to the agonist nature of the compounds tested, compound ranking is based on potency in cell-based screens for cytokine induction. Briefly, the EC50 of each compound for a given cytokine is calculated relative to a reference composition (i.e. LPS or other potent immune stimulator). […] Rank-scoring of SMIP potency is calculated by dividing the maximum concentration of cytokine produced by the relative EC50 established for each compound indicated.

For the compound `CC(C)Cc1cn2c(n1)c(N)nc1ccccc12` [Example 3, 2-isobutylimidazo[1,2-a]quinoxalin-4-amine], the “reactivity for mouse TLR7” value in assay [1] is recorded as “slightly more reactivity for mouse TLR7 than did the compound of Example 4”. For the same compound, the “stimulation of human TLR7” value in assay [2] is given as “activity for stimulation”. Moreover, the “stimulatory activity with human TLR8” value in assay [3] is on record as “stimulatory activity”. The EC50 in assay [4] and in assay [5] was less than 15 µM in each case.

Take `CC(C)Cc1nc2c(N)nc3ccccc3n2c1CC(C)(C)O` [Example 4, 1-(4-amino-2-isobutylimidazo[1,2-a]quinoxalin-1-yl)-2-methylpropan-2-ol]: the “stimulatory activity with human TLR8” value in assay [3] is “little or no reactivity”. The EC50 in assay [4] and in assay [5] was less than 15 µM each time.

Usually EC50 stands for the concentration at which the effect is half-maximal.

The values are drawn from US8173657B2, “Imidazoquinoxaline compounds as immunomodulators” (Novartis AG, priority 2006, dated 2012).
